Measured values from PMC6403271, “Characterization, mechanism of action and optimization of activity of a novel peptide-peptoid hybrid against bacterial pathogens involved in canine skin infections” (Scientific Reports, 2019).
pEC50: −log10 of the molar value. Square brackets hold non-standard residues; d marks the D form. Ends that are not written are not given here. Peptide text beside a SMILES is read from it. 1Nal = N[C@@H](Cc1cccc2ccccc12)C(=O)O

What was measured:
[1] = test system: membrane potential of MRSP E104; assay: DiSC3(5) fluorescence-based membrane potential study; type: cell-based, Staphylococcus pseudintermedius; details: MRSP E104, nisin treatment
Procedure: Freshly sub-cultured E104 cells were labelled with 1 µM 3,3-Dipropylthiadicarbocyanine iodide [DiSC3(5)] (Sigma) in MHB II. The fluorescence spectra of labelled cells were plotted in the LS50B luminescence spectrometer (PerkinElmer) at excitation/emission wavelengths 546 nm/573 nm using time drive application of FLWINLAB software. After reading an initial stable emission spectra of DiSC3(5), labelled cells were treated with B1 or nisin or protonophore CCCP at 1, 1.5 and 1.25 µg/ml, respectively and the change of fluorescence over time was recorded. The increment of DiSC3(5) fluorescence upon addition of antimicrobials or CCCP (FUafter-treatment – FUbefore-treatment) was plotted. This experiment was performed twice and each time with two technical replicates.

[2] = test system: cell wall synthesis in MRSP E104; assay: Macromolecule biosynthesis rate, cell wall (3H-glucosamine); type: cell-based, Staphylococcus pseudintermedius; details: MRSP E104, 1.25 µg/ml, 20 min
Procedure: (§1) Macromolecule biosynthesis rate was measured in MRSP E104 following a protocol adapted from Ling et al.[65]. Briefly, E104 overnight culture was sub-cultured 1:100 in MHB II and grown up to OD 0.2 at 600 nm. Cells were pelleted down by centrifugation and resuspended in fresh medium followed by incubation for 20 min with B1 or nisin at 1.5 µg/ml and 1.25 µg/ml, respectively, and radiolabeled precursor: (50µCi) 3H-Thymidine (PerkinElmer) and (5µCi) 3H-glucosamine hydrochloride per ml for DNA and cell wall, respectively. A positive control without antimicrobial was maintained. After incubation, samples were precipitated with equal volume of cold 30% TCA (Sigma) on ice. Precipitates were filtered on a membrane filter and subsequently subjected to two washes of cold 15% TCA and two washes of cold water using vacuum manifold. Subsequently, filters were air dried overnight and then transferred to 10 ml scintillation vials. Finally, scintillation fluid (3 ml) was added to each vial and ^3H count was taken in Beckman Coulter LS6500 liquid scintillation counter for one minute. The radioactive counts of the control samples were considered to have 100% precursor incorporation and macromolecule synthesis. The percentage rates of the antimicrobial-exposed samples were calculated accordingly. Each experiment was performed with replicates and the average rates of incorporation were plotted.

[3] = test system: DNA synthesis in MRSP E104; assay: Macromolecule biosynthesis rate, DNA (3H-Thymidine); type: cell-based, Staphylococcus pseudintermedius; details: MRSP E104, 1.25 µg/ml, 20 min
Procedure: as §1

MRSP E104 = assay: High-throughput growth curves (BioScreen); type: cell-based, Staphylococcus pseudintermedius; details: growth curve analysis
Procedure: The effects of B1 on the growth of a reference MRSP strain (ST71, E104) were evaluated using BioScreen (Oy Growth Curves Ab LTd, Finland). A well characterized antimicrobial peptide, Nisin, was used as a positive control. […] The OD600 of each micro-culture was measured and recorded every 15 min after a 5 second pause of shaking in automatic mode. The recorded ODs were plotted against time to prepare the growth curves. The assay was performed with technical and biological replicates, and one representative result was presented.

P. aeruginosa (26314) = type: cell-based, Pseudomonas aeruginosa; details: 26314, 18 h
Procedure: Activity of B1 was tested on […]. aeruginosa isolates and […]. pseudintermedius isolates (including 7 MRSP) that had been isolated in the diagnostic laboratory Sund Vet Diagnostik (University of Copenhagen) from various infections in dogs between 2009 and 2011. Representative […], and P. aeruginosa (26314) were used for testing the first set of B1 analogues. For antibacterial spectrum the following strains were used: Corynebacterium auriscanis, 31551, (54 C6, dog, ear, 2013); Enterococcus faecalis, 27404, (17 C7, dog, wound, 2011); Enterococcus faecium, 30951, (24 C1, dog, ear, 2013); Streptococcus canis, 26740-1, (14 H1, dog, ear, 2010); Staphylococcus aureus, 27266, (16 G9, dog, skin, 2010); Staphylococcus aureus, 27266, (16 G9, dog, skin, 2010); Staphylococcus pseudintermedius 22963, (3 B9, dog, 2007). Acinetobacter baumannii, 27065, (16 D1, dog, wound, 2010); E. coli, 30235, 23 A6, dog, wound, 2012; Klebsiella pneumoniae, 26233, (11 H5, dog, wound, 2010); Pasteurella canis, 31096, (24 C8, dog, skin, 2013); Proteus mirabilis, 25178, (9 A4, dog, ear, 2009); Pseudomonas aeruginosa 26314, 12 C5, dog, urine, 2010). MIC determination was performed by broth microdilution according to the Clinical and Laboratory Standard Institute (CLSI, […]-A3, 2008)[62]. In brief, each bacterial strain was diluted to concentration of 5 × 10^5 CFU/mL in Mueller Hinton broth II (MHB II) media (Oxoid) and added to a two-fold serial dilution of peptides and peptide-peptoid hybrids concentrations ranging from 1 to 64 μg/ml in 96-well plates (Nunc Internationals, Rochester, NY). The MICs were determined as a lowest concentration showing no visible growth after incubation for 18 hours at 37 °C. Experiments were performed in triplicates on two different days.

MRSP C22963 = type: cell-based, Staphylococcus pseudintermedius; details: 18 h
Procedure: (§2) Activity of B1 was tested on 50P. aeruginosa isolates and 57S. pseudintermedius isolates (including 7 MRSP) that had been isolated in the diagnostic laboratory Sund Vet Diagnostik (University of Copenhagen) from various infections in dogs between 2009 and 2011. Representative MRSP (C22963), MSSA, and P. aeruginosa (26314) were used for testing the first set of B1 analogues.
(§3) MIC determination was performed by broth microdilution according to the Clinical and Laboratory Standard Institute (CLSI, M31-A3, 2008)[62]. In brief, each bacterial strain was diluted to concentration of 5 × 10^5 CFU/mL in Mueller Hinton broth II (MHB II) media (Oxoid) and added to a two-fold serial dilution of peptides and peptide-peptoid hybrids concentrations ranging from 1 to 64 µg/ml in 96-well plates (Nunc Internationals, Rochester, NY). The MICs were determined as a lowest concentration showing no visible growth after incubation for 18 hours at 37 °C. Experiments were performed in triplicates on two different days.

[4] = type: cell-based, human; details: human
Procedure: (§4) Briefly, two-fold serial dilutions (2.35 to 150 μM) of compounds in phosphate buffer saline (PBS) were mixed with equal volume of 0.5% v/v suspension of fresh human red blood cells (RBC) in the same buffer. After 1 h incubation at 37 °C, plates were centrifuged and aliquots of the supernatants were transferred to clear 96-well plates. Absorbance at 414 nm was measured and normalized using a negative (PBS, 0%) and a positive (melittin, 100%) control. The EC10 and EC50 are concentrations at which 10% and 50% of RBC were lysed, respectively, as interpolated graphically by the y-axis intersection of the plotted data.

human red blood cells = type: cell-based
Procedure: as §4

MSSA (ATCC 29213) = type: cell-based, Staphylococcus aureus; details: ATCC 29213, 18 h
Procedure: as §2, §3

Row | Compound | membrane potential, DiSC3(5) fluorescence emission [1] | inhibition of cell wall synthesis [2] [%] | inhibition of DNA synthesis [3] [%] | MIC concentration (cell lysis) MRSP E104 (MRSP E104) [µg/mL] | Minimum Inhibitory Concentration P. aeruginosa (26314) (P. aeruginosa (26314)) [µg/mL] | Minimum Inhibitory Concentration MRSP C22963 (MRSP C22963) [µg/mL] | hemolysis at 1 h, 150 µM [4] [%] | Haemolysis EC10 (human red blood cells) [µM] | pEC50 (human red blood cells; red cells of human, 1 h) | Minimum Inhibitory Concentration MSSA (ATCC 29213) (MSSA (ATCC 29213)) [µg/mL]
1 | nisin (ITSISLCTPGCKTGALMGCNMKTATCHCSIHVSK; not fully specified (some residues, bridges); cysteine pairing not given here; also: lantibiotic nisin-A (post-translational modifications not given here); UniProt P13068 24-57, looked up) [well-characterized antimicrobial peptide used as control, reference compound] | no fluorescence increment | 60 | 50 | 5 | – | – | – | – | – | –
2 | CC(C)C[C@H](NC(=O)[C@H](CCCCN)NC(=O)[C@H](CCCCN)NC(=O)[C@@H](N)CCCCN)C(=O)N[C@@H](Cc1cccc2ccccc12)C(=O)N[C@@H](Cc1ccccc1)C(=O)N[C@@H](Cc1cccc2ccccc12)C(N)=O [Compound 7, Lys-Lys-Lys-Leu-(1-Nal)Ala-Phe-(1-Nal)Ala] (H-KKKL[1Nal]F[1Nal]-NH2; N-terminus assumed) | – | – | – | – | 16 | 8 | 55 | 8 | 3.85 | 16
